Reference: ChEMBL document CHEMBL1201862, “PubChem BioAssay data set” (2004)
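In this assay, cells in 96-well plates receive the compound at five concentrations for 48 hours. Endpoints are linearly interpolated between the surrounding concentrations. GI50 marks 50% less growth.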 Active and inactive are the calls of the source. Cut-off read from the data, not from the text of the source: active = GI50 up to about 1.1 µM and inactive = higher.

What was measured:
Assay in all cases: DTP human tumour cell line panel, 48 h
[1] = tested on: LOX IMVI
[2] = tested on: UACC-62
[3] = tested on: DLD-1
[4] = tested on: KM12
[5] = tested on: A549
[6] = tested on: SF-539
[7] = tested on: NCI-H23
[8] = tested on: OVCAR-5
[9] = tested on: SK-MEL-28
[10] = tested on: OVCAR-8
[11] = tested on: NCI-H460
[12] = tested on: CCRF-CEM
[13] = tested on: ACHN
[14] = tested on: HCT-15
[15] = tested on: DMS-273
[16] = tested on: SF-268
[17] = tested on: OVCAR-3
[18] = tested on: LXFL 529
[19] = tested on: NCI-H522
[20] = tested on: 786-0
[21] = tested on: UO-31
[22] = tested on: RPMI-8226
[23] = tested on: XF498
[24] = tested on: HOP-62
[25] = tested on: SK-MEL-5
[26] = tested on: EKVX
[27] = tested on: SK-OV-3
[28] = tested on: U-251
[29] = tested on: M19-MEL
[30] = tested on: M14
[31] = tested on: Malme-3M
[32] = tested on: KM-20L2
[33] = tested on: A498
[34] = tested on: SR
[35] = tested on: RXF 393
[36] = tested on: SN12C
[37] = tested on: SW-620
[38] = tested on: MOLT-4
[39] = tested on: SNB-78
[40] = tested on: DMS-114
[41] = tested on: HCC 2998
[42] = tested on: UACC-257
[43] = tested on: SF-295
[44] = tested on: SK-MEL-2
[45] = tested on: TK-10
[46] = tested on: K562
[47] = tested on: HL-60
[48] = tested on: SNB-19
[49] = tested on: HCT-116
[50] = tested on: IGROV-1
[51] = tested on: HT-29
[52] = tested on: NCI-H226
[53] = tested on: OVCAR-4
[54] = tested on: MCF7
[55] = tested on: SNB-75
[56] = tested on: COLO 205
[57] = tested on: HOP-92
[58] = tested on: CAKI-1
[59] = tested on: HOP-18
[60] = tested on: NCI/ADR-RES

Cc1ccc(C2NC(=O)c3ccccc3N2)s1 (centres undefined)
GI50 [1]: 6.55 µM (inactive) | GI50 [2]: 5.51 µM (inactive) | GI50 [3]: 5.02 µM (inactive) | GI50 [4]: 4.61 µM (inactive) | GI50 [5]: 8.83 µM (inactive) | GI50 [6]: 3.28 µM (inactive) | GI50 [7]: 4.36 µM (inactive) | GI50 [8]: 10 µM (inactive) | GI50 [9]: 5.81 µM (inactive) | GI50 [10]: 8.43 µM (inactive) | GI50 [11]: 4.25 µM (inactive) | GI50 [12]: 3.27 µM (inactive) | GI50 [13]: > 100 µM (inactive) | GI50 [14]: 4.09 µM | GI50 [15]: 4.25 µM (inactive) | GI50 [16]: 8 µM (inactive) | GI50 [17]: 3.8 µM (inactive) | GI50 [18]: 7.64 µM (inactive) | GI50 [19]: 4.26 µM (inactive) | GI50 [20]: 5.69 µM (inactive) | GI50 [21]: 7.38 µM (inactive) | GI50 [22]: 4.69 µM (inactive) | GI50 [23]: 3.21 µM (inactive) | GI50 [24]: 4.37 µM (inactive) | GI50 [25]: 2.88 µM (inactive) | GI50 [26]: > 100 µM (inactive) | GI50 [27]: 5.4 µM (inactive) | GI50 [28]: 4.6 µM (inactive) | GI50 [29]: 6.12 µM (inactive) | GI50 [30]: 8.05 µM (inactive) | GI50 [31]: 4.8 µM (inactive) | GI50 [32]: 4.55 µM (inactive) | GI50 [33]: 6.78 µM (inactive) | GI50 [34]: 8.3 µM (inactive) | GI50 [35]: 5.86 µM (inactive) | GI50 [36]: 4.79 µM (inactive) | GI50 [37]: 2.94 µM (inactive) | GI50 [38]: 3.07 µM (inactive) | GI50 [39]: 33.2 µM (inactive) | GI50 [40]: 5.21 µM (inactive) | GI50 [41]: 7.05 µM (inactive) | GI50 [42]: 2.32 µM (inactive) | GI50 [43]: 2.37 µM (inactive) | GI50 [44]: 3.75 µM (inactive) | GI50 [45]: > 100 µM (inactive) | GI50 [46]: 3.2 µM (inactive) | GI50 [47]: 2.92 µM (inactive) | GI50 [48]: 59.6 µM (inactive) | GI50 [49]: 6.31 µM (inactive) | GI50 [50]: 6.67 µM (inactive)

C=CC(=O)NC(=N)NC#N
GI50 [1]: > 74.6 µM (inactive) | GI50 [2]: 157 µM (inactive) | GI50 [3]: 153 µM (inactive) | GI50 [51]: 189 µM (inactive) | GI50 [4]: > 100 µM (inactive) | GI50 [5]: 195 µM (inactive) | GI50 [6]: 164 µM (inactive) | GI50 [7]: 188 µM (inactive) | GI50 [8]: 177 µM (inactive) | GI50 [9]: 131 µM (inactive) | GI50 [10]: 214 µM (inactive) | GI50 [11]: 176 µM (inactive) | GI50 [12]: 22.6 µM (inactive) | GI50 [13]: 121 µM (inactive) | GI50 [14]: 120 µM | GI50 [16]: 121 µM (inactive) | GI50 [17]: 169 µM (inactive) | GI50 [18]: 124 µM (inactive) | GI50 [19]: 18 µM (inactive) | GI50 [20]: 163 µM (inactive) | GI50 [21]: 176 µM (inactive) | GI50 [52]: 200 µM (inactive) | GI50 [22]: 22 µM (inactive) | GI50 [23]: 97.3 µM (inactive) | GI50 [53]: 168 µM (inactive) | GI50 [24]: 210 µM (inactive) | GI50 [25]: 165 µM (inactive) | GI50 [26]: > 100 µM (inactive) | GI50 [27]: 175 µM (inactive) | GI50 [28]: 158 µM (inactive) | GI50 [29]: 140 µM (inactive) | GI50 [30]: 151 µM (inactive) | GI50 [31]: 145 µM (inactive) | GI50 [32]: 150 µM (inactive) | GI50 [33]: 152 µM (inactive) | GI50 [34]: 150 µM (inactive) | GI50 [35]: > 73.5 µM (inactive) | GI50 [54]: > 68.7 µM (inactive) | GI50 [36]: 157 µM (inactive) | GI50 [37]: > 76.2 µM (inactive) | GI50 [39]: 179 µM (inactive) | GI50 [40]: 114 µM (inactive) | GI50 [41]: 182 µM (inactive) | GI50 [55]: 155 µM (inactive) | GI50 [56]: 149 µM (inactive) | GI50 [42]: 125 µM (inactive) | GI50 [43]: 313 µM (inactive) | GI50 [44]: > 100 µM (inactive) | GI50 [45]: 142 µM (inactive) | GI50 [46]: 35.9 µM (inactive) | GI50 [57]: > 39.4 µM (inactive) | GI50 [58]: 69 µM (inactive) | GI50 [47]: 26.9 µM (inactive) | GI50 [59]: 148 µM (inactive) | GI50 [48]: 363 µM (inactive) | GI50 [49]: 189 µM (inactive) | GI50 [50]: 181 µM (inactive) | GI50 [60]: > 100 µM (inactive)

OCc1ccccc1C1CSCSC1
GI50 [1]: > 100 µM (inactive) | GI50 [2]: > 100 µM (inactive) | GI50 [3]: > 100 µM (inactive) | GI50 [51]: > 100 µM (inactive) | GI50 [4]: > 100 µM (inactive) | GI50 [5]: > 100 µM (inactive) | GI50 [6]: > 100 µM (inactive) | GI50 [9]: > 100 µM (inactive) | GI50 [10]: > 100 µM (inactive) | GI50 [11]: > 100 µM (inactive) | GI50 [12]: > 100 µM (inactive) | GI50 [13]: > 100 µM (inactive) | GI50 [14]: > 100 µM | GI50 [15]: > 100 µM (inactive) | GI50 [16]: > 100 µM (inactive) | GI50 [17]: > 100 µM (inactive) | GI50 [18]: > 100 µM (inactive) | GI50 [19]: > 100 µM (inactive) | GI50 [21]: > 100 µM (inactive) | GI50 [52]: > 100 µM (inactive) | GI50 [23]: > 100 µM (inactive) | GI50 [53]: > 100 µM (inactive) | GI50 [25]: > 100 µM (inactive) | GI50 [27]: > 100 µM (inactive) | GI50 [28]: > 100 µM (inactive) | GI50 [29]: > 100 µM (inactive) | GI50 [31]: > 100 µM (inactive) | GI50 [35]: > 100 µM (inactive) | GI50 [36]: > 100 µM (inactive) | GI50 [37]: > 100 µM (inactive) | GI50 [38]: > 100 µM (inactive) | GI50 [39]: > 100 µM (inactive) | GI50 [40]: > 100 µM (inactive) | GI50 [55]: > 100 µM (inactive) | GI50 [42]: > 100 µM (inactive) | GI50 [43]: > 100 µM (inactive) | GI50 [44]: > 100 µM (inactive) | GI50 [45]: > 100 µM (inactive) | GI50 [46]: > 100 µM (inactive) | GI50 [47]: > 100 µM (inactive) | GI50 [49]: > 100 µM (inactive)
